From publication PMC1664607 (PLoS Medicine, 2006)
Converted amounts (≈) assume the structure as drawn. Like-named read-outs stand apart in the source and are kept apart here.

Experiments:
CYP1A1/2 = experiment: 7-Ethoxyresorufin O-deethylation in human liver microsomes; assay type: in vitro ADME; settings: 0.5 μM 7-ethoxyresorufin
M. tuberculosis Kurono = experiment: Therapeutic efficacy in an experimental mouse model of chronic TB; assay type: in vivo, ICR mice; settings: for Log of Viable Counts/Lung: mean ± S.D., n = 5
CYP2B6 = target: T1, CYP2B6 (Homo sapiens, UniProt P20813); settings: […] 7-benzyloxyresorufin
T1 sequence (P20813 1-491): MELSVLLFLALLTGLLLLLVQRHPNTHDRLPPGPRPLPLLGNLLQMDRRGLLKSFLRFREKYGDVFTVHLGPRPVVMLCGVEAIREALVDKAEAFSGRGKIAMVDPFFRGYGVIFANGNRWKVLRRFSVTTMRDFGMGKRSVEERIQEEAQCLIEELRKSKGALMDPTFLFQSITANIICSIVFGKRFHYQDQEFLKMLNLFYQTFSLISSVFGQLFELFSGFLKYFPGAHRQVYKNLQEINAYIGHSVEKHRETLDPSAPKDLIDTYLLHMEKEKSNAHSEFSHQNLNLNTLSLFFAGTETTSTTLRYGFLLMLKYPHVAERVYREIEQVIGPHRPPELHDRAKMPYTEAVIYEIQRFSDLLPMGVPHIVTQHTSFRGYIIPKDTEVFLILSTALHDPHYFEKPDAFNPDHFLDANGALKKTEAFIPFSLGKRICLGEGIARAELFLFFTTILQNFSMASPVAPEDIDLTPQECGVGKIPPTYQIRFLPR

[1] = assay type: in vitro ADME, human, rat, mouse, dog, rabbit, and monkey; settings: 2 h
Experimental: The study was undertaken to investigate the metabolites produced by the metabolic reactions of OPC-67683 using human, rat, mouse, dog, rabbit, and monkey liver microsomes. Pooled human liver microsomes (20 mg/ml) from ten donors were prepared at the Biomedical Research Institute, Human and Animal Bridge Discussion Group (Chiba, Japan). Human liver samples were legally procured from the National Disease Research Interchange (http://www.ndriresource.org/) through the international partnership with the Human and Animal Bridge Discussion Group. The study was conducted in accordance with the Declaration of Helsinki.
The reactions were performed in duplicate in a shaking water bath at 37 °C for 2 h. The incubation mixtures were extracted with acetonitrile and ethyl acetate, and the samples were analyzed by HPLC and LC-ESI-MS/MS.

[2] = test system: M. tuberculosis ATCC 35838 (H37Rv-R-R); experiment: microbe, parasite or virus in culture; assay type: cell-based; settings: Mycobacterium tuberculosis, 336 h
[3] = test system: clinically isolated M. tuberculosis (27 test strains); experiment: Checkerboard method, combination with existing TB drugs; assay type: cell-based; settings: antagonism = FIC index >4.0
Source text: In addition, the efficacy of OPC-67683 in combination with currently used anti-TB drugs RFP, INH, EB, and SM was examined in vitro using the checkerboard method.

[4] = test system: M. tuberculosis ATCC 35822 (H37Rv-H-R); experiment: microbe, parasite or virus in culture; assay type: cell-based; settings: Mycobacterium tuberculosis, 336 h
CYP2C8/9 = experiment: Tolubutamide methylhydroxylation in human liver microsomes; assay type: in vitro ADME; settings: 400 μM tolbutamide
[5] = test system: M. tuberculosis ATCC 25618 (H37Rv); experiment: Susceptibility testing (agar dilution MIC); assay type: cell-based; settings: Mycobacterium tuberculosis, 336 h; 7H11 agar, 37 °C, 14 d; read-out: MIC
[6] = test system: mycolic acid synthesis in M. bovis BCG; experiment: microbe, parasite or virus in culture; assay type: cell-based; settings: for IC50: Mycobacterium tuberculosis variant bovis BCG, BCG
[7] = Plasma levels in an experimental mouse model of TB; settings: in vivo, po
CYP2D6 = target: T2, CYP2D6 (Homo sapiens, UniProt P10635); experiment: Bufuralol 1′ -hydroxylation in human liver microsomes; assay type: in vitro ADME; settings: 20 μM bufuralol
T2 construct: Standard incubation mixtures of 0.5 ml contained microsomal protein (0.1–0.5 mg); from tissue; host or cells: pooled human liver microsomes (ten donors)
T2 sequence (P10635 whole entry): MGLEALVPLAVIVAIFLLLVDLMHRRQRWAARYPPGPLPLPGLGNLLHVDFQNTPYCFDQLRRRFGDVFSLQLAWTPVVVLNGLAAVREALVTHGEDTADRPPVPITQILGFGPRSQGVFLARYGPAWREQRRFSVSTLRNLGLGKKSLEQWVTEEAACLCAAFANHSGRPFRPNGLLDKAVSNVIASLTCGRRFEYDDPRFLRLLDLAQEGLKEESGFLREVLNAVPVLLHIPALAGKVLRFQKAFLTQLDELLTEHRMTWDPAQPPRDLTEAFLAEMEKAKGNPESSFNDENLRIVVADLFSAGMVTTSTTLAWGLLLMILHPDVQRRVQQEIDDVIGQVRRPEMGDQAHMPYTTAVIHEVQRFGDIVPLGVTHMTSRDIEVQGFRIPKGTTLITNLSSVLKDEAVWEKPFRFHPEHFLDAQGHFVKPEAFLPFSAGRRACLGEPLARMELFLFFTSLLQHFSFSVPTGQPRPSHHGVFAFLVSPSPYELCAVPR

[8] = test system: Salmonella tyiphimurium TA98, TA100, TA1535, and TA1537, and Escherichia coli WP2 uvrA; experiment: Bacterial reverse mutation (BRM) test, overall result; assay type: cell-based; settings: absence and presence of S9 mix, OECD Guideline 471
Experimental: The BRM test was performed in accordance with OECD Guideline 471 using Salmonella tyiphimurium TA98, TA100, TA1535, and TA1537, and Escherichia coli WP2 uvrA [11]. Each bacterial strain was pre-cultured at 37 °C for 18 h using a nutrient broth (Nissui Pharmaceutical; http://www.nissui-pharm.co.jp/index_e.html). After adjustment to 2.4 at OD660 nm, each bacterial suspension was added to a test tube containing the designated compound in the absence or presence of rat liver microsome (S9) mix. After a 20-min incubation at 37 °C, top agar was added to each test tube and the contents were poured into minimum essential medium (Oriental Yeast; http://www.oyc.co.jp/e/index.htm). The number of revertants was counted 48 h after incubation at 37 °C.

[9] = test system: clinically isolated M. tuberculosis; experiment: microbe, parasite or virus in culture; assay type: cell-based; settings: for MIC90: Mycobacterium tuberculosis, read-out: MIC90
[10] = test system: M. tuberculosis ATCC 35812 (Kurono); experiment: Susceptibility testing (agar dilution MIC); assay type: cell-based; settings: Mycobacterium tuberculosis, ATCC35812, 336 h; 7H11 agar, 37 °C, 14 d; read-out: MIC

Compound: C[C@]1(COc2ccc(N3CCC(Oc4ccc(OC(F)(F)F)cc4)CC3)cc2)Cn2cc([N+](=O)[O-])nc2O1 [OPC-67683, (R)-2-methyl-6-nitro-2-(4-[4-(4-trifluoromethoxyphenoxy)piperidin-1-yl]phenoxymethyl}-2,3-dihydroimidazo[2,1-b]oxazole]
- Percent of Control (CYP1A1/2; 10 μM): 98.4% of Control
- Percent of Control (CYP1A1/2; 30 μM): 102.5% of Control
- Percent of Control (CYP1A1/2; 100 μM): 98.6% of Control
- Log of Viable Counts/Lung (M. tuberculosis Kurono; 0.156 mg/kg once daily for 28 d (4 weeks)): 6.506 ± 0.294^a:NS, b:NS
- Log of Viable Counts/Lung (M. tuberculosis Kurono; 0.313 mg/kg once daily for 28 d (4 weeks)): 5.959 ± 0.436^a:**, b:**
- Log of Viable Counts/Lung (M. tuberculosis Kurono; 0.625 mg/kg once daily for 28 d (4 weeks)): 5.457 ± 0.245^a:**, b:**
- Log of Viable Counts/Lung (M. tuberculosis Kurono; 1.25 mg/kg once daily for 28 d (4 weeks)): 4.867 ± 0.400^a:**, b:**
- Log of Viable Counts/Lung (M. tuberculosis Kurono; 2.5 mg/kg once daily for 28 d (4 weeks)): 4.753 ± 0.297^a:**, b:**
- Log of Viable Counts/Lung (M. tuberculosis Kurono; 5 mg/kg once daily for 28 d (4 weeks)): 4.272 ± 0.463^a:**, b:**
- Log of Viable Counts/Lung (M. tuberculosis Kurono; 10 mg/kg once daily for 28 d (4 weeks)): 3.943 ± 0.465^a:**, b:**
- Log of Viable Counts/Lung (M. tuberculosis Kurono; 20 mg/kg once daily for 28 d (4 weeks)): 3.495 ± 0.522^a:**, b:**
- Log of Viable Counts/Lung (M. tuberculosis Kurono; 40 mg/kg once daily for 28 d (4 weeks)): 2.791 ± 0.671^a:**, b:**
- Dose that could produce a CFU reduction of at least 95% (M. tuberculosis Kurono; lung, once daily for 28 d): 0.625 mg/kg
- Percent of Control (CYP2B6; 10 μM): 118.3% of Control
- Percent of Control (CYP2B6; 30 μM): 112.8% of Control
- Percent of Control (CYP2B6; 100 μM): 122.3% of Control
- Stability in the in vitro metabolism of liver microsomes [1]: stable
- MIC [2]: 0.006 µg/mL (≈ 0.0112 µM)
- Antagonistic activity in combination with RFP, INH, EB, and SM [3]: no antagonistic activity
- MIC [4]: 0.012 µg/mL (≈ 0.0225 µM)
- Percent of Control (CYP2C8/9; 10 μM): 107.2% of Control
- Percent of Control (CYP2C8/9; 30 μM): 107.8% of Control
- Percent of Control (CYP2C8/9; 100 μM): 108.5% of Control
- MIC [5]: 0.012 µg/mL (≈ 0.0225 µM)
- IC50, α-Mycolic acid ([6]; 14C acetic acid incorporation, 60 min, TLC n = 3): >0.25 µg/mL
- IC50 ([6]; 1 h, read-out: IC50, Fatty acid): > 0.25 µg/mL
- IC50 ([6]; 1 h, read-out: IC50, Keto-mycolic acid): 0.021 µg/mL (≈ 0.0393 µM)
- IC50 ([6]; 1 h, read-out: IC50, Methoxy-mycolic acid): 0.036 µg/mL (≈ 0.0674 µM)
- IC50 ([6]; 1 h, read-out: IC50, α-Mycolic acid): > 0.25 µg/mL
- IC50 ([6]; read-out: IC50 values, synthesis of methoxy- and keto-mycolic acid): 0.021 to 0.036 µg/mL (≈ 0.0393 to 0.0674 µM)
- concentration at 1 h [7]: 133 ± 30 ng/mL
- concentration at 2 h [7]: 193 ± 40 ng/mL
- concentration at 4 h [7]: 220 ± 20 ng/mL
- concentration at 6 h [7]: 297 ± 83 ng/mL
- AUC(0-t) ([7]; 2.5 mg/kg): 4130 ng·h/mL
- Cmax ([7]; 2.5 mg/kg): 297 ng/mL
- Tmax ([7]; 2.5 mg/kg): 6 h
- concentration at 12 h ([7]; 2.5 mg/kg): 166 ± 49 ng/mL
- concentration at 24 h ([7]; 2.5 mg/kg): 49 ± 12 ng/mL
- half-life ([7]; 2.5 mg/kg): 7.6 h
- Percent of Control (CYP2D6; 10 μM): 99.1% of Control
- Percent of Control (CYP2D6; 30 μM): 103.3% of Control
- Percent of Control (CYP2D6; 100 μM): 97.8% of Control
- Mutagenic potential in the BRM test [8]: did not show mutagenicity
- MIC90 of OPC-67683 times lower than that of EB [9]: ~303 times
- MIC90 of OPC-67683 times lower than that of INH [9]: eight
- MIC90 of OPC-67683 times lower than that of RFP [9]: about 24 times
- MIC90 of OPC-67683 times lower than that of SM [9]: ~244 times
- MIC90 ([9]; EB-susceptible M. tuberculosis (56 strains)): 0.0121 µg/mL (≈ 0.0227 µM)
- MIC90 ([9]; INH-susceptible M. tuberculosis (31 strains)): 0.0119 µg/mL (≈ 0.0223 µM)
- MIC90 ([9]; RFP-susceptible M. tuberculosis (31 strains)): 0.0125 µg/mL (≈ 0.0233 µM)
- MIC90 ([9]; SM-susceptible M. tuberculosis (49 strains)): 0.012 µg/mL (≈ 0.0225 µM)
- MIC90 [9]: 0.012 µg/mL (≈ 0.0225 µM)
- MIC [10]: 0.012 µg/mL (≈ 0.0225 µM)
